Results as given in PubChem BioAssay (NCI).
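48-hour exposure; five concentrations; linearly interpolated endpoints. GI50: concentration for 50% inhibition of growth. At the TGI there is no net growth.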

Assays:
Test in all cases: NCI tumour cell line growth inhibition, 48 h
[1] = test system: HS 578T breast
[2] = test system: HOP-62 NSCLC
[3] = test system: OVCAR-4 ovarian
[4] = test system: NCI-H226 lung
[5] = test system: SK-MEL-28 melanoma
[6] = test system: SW-620 colon
[7] = test system: NCI/ADR-RES ovarian
[8] = test system: OVCAR-3 ovarian
[9] = test system: SNB-19 CNS
[10] = test system: MCF7 breast
[11] = test system: MDA-MB-231 breast
[12] = test system: UACC-62 melanoma
[13] = test system: SN12C renal
[14] = test system: M14 melanoma
[15] = test system: SK-OV-3 ovarian
[16] = test system: ACHN renal
[17] = test system: BT-549 breast
[18] = test system: COLO 205 colon
[19] = test system: SF-268 CNS
[20] = test system: SNB-75 CNS
[21] = test system: HCC-2998 colon
[22] = test system: DU-145 prostate
[23] = test system: HCT-15 colon
[24] = test system: NCI-H460 lung
[25] = test system: MDA-MB-435
[26] = test system: T-47D breast
[27] = test system: MALME-3M melanoma
[28] = test system: HCT-116 colon
[29] = test system: CAKI-1 renal
[30] = test system: RXF 393 renal
[31] = test system: PC-3 prostate
[32] = test system: A498 renal
[33] = test system: SF-295 CNS
[34] = test system: SK-MEL-5 melanoma
[35] = test system: TK-10 renal
[36] = test system: HT29 colon
[37] = test system: SF-539 CNS
[38] = test system: NCI-H522 lung
[39] = test system: UACC-257 melanoma
[40] = test system: 786-0 renal
[41] = test system: UO-31 renal
[42] = test system: RPMI-8226 leukemia
[43] = test system: OVCAR-8 ovarian
[44] = test system: KM12 colon
[45] = test system: SK-MEL-2 melanoma
[46] = test system: HOP-92 NSCLC
[47] = test system: U251 CNS
[48] = test system: CCRF-CEM leukemia
[49] = test system: EKVX NSCLC
[50] = test system: IGROV1 ovarian
[51] = test system: A549 NSCLC
[52] = test system: LOX IMVI melanoma
[53] = test system: OVCAR-5 ovarian
[54] = test system: NCI-H23 lung
[55] = test system: K-562 leukemia
[56] = test system: HL-60(TB) leukemia
[57] = test system: MOLT-4 leukemia

## Clc1ccc(C=Nc2ccc(-c3nc4ccccc4[nH]3)cc2)cc1
[1]
  GI50: 39 µM
  TGI: > 100 µM
[2]
  GI50: > 100 µM
  TGI: > 100 µM
[3]
  GI50: > 100 µM
  TGI: > 100 µM
[4]
  GI50: > 100 µM
  TGI: > 100 µM
[5]
  GI50: > 100 µM
  TGI: > 100 µM
[6]
  GI50: > 100 µM
  TGI: > 100 µM
[7]
  GI50: > 100 µM
  TGI: > 100 µM
[8]
  GI50: > 100 µM
  TGI: > 100 µM
[9]
  GI50: 55.6 µM
  TGI: > 100 µM
[10]
  GI50: > 100 µM
  TGI: > 100 µM
[11]
  GI50: > 100 µM
  TGI: > 100 µM
[12]
  GI50: > 100 µM
  TGI: > 100 µM
[13]
  GI50: > 100 µM
  TGI: > 100 µM
[14]
  GI50: > 100 µM
  TGI: > 100 µM
[15]
  GI50: > 100 µM
  TGI: > 100 µM
[16]
  GI50: > 100 µM
  TGI: > 100 µM
[17]
  GI50: > 100 µM
  TGI: > 100 µM
[18]
  GI50: > 100 µM
  TGI: > 100 µM
[19]
  GI50: 58.4 µM
  TGI: > 100 µM
[20]
  GI50: 77.7 µM
  TGI: > 100 µM
[21]
  GI50: > 100 µM
  TGI: > 100 µM
[22]
  GI50: > 100 µM
  TGI: > 100 µM
[23]
  GI50: > 100 µM
  TGI: > 100 µM
[24]
  GI50: > 100 µM
  TGI: > 100 µM
[25]
  GI50: > 100 µM
  TGI: > 100 µM
[26]
  GI50: 55.1 µM
  TGI: > 100 µM
[27]
  GI50: > 100 µM
  TGI: > 100 µM
[28]
  GI50: > 100 µM
  TGI: > 100 µM
[29]
  GI50: > 100 µM
  TGI: > 100 µM
[30]
  GI50: > 100 µM
  TGI: > 100 µM
[31]
  GI50: > 100 µM
  TGI: > 100 µM
[32]
  GI50: 17.4 µM
  TGI: > 100 µM
[33]
  GI50: > 100 µM
  TGI: > 100 µM
[34]
  GI50: 45 µM
  TGI: > 100 µM
[35]
  GI50: > 100 µM
  TGI: > 100 µM
[36]
  GI50: > 100 µM
  TGI: > 100 µM
[37]
  GI50: > 100 µM
  TGI: > 100 µM
[38]
  GI50: > 100 µM
  TGI: > 100 µM
[39]
  GI50: > 100 µM
  TGI: > 100 µM
[40]
  GI50: > 100 µM
  TGI: > 100 µM
[41]
  GI50: > 100 µM
  TGI: > 100 µM
[42]
  GI50: > 100 µM
  TGI: > 100 µM
[43]
  GI50: > 100 µM
  TGI: > 100 µM
[44]
  GI50: > 100 µM
  TGI: > 100 µM
[45]
  GI50: > 100 µM
  TGI: > 100 µM
[46]
  GI50: 89.1 µM
  TGI: > 100 µM
[47]
  GI50: 65.1 µM
  TGI: > 100 µM
[48]
  GI50: > 100 µM
  TGI: > 100 µM
[49]
  GI50: > 100 µM
  TGI: > 100 µM
[50]
  GI50: > 100 µM
  TGI: > 100 µM
[51]
  GI50: > 100 µM
  TGI: > 100 µM
[52]
  GI50: > 100 µM
  TGI: > 100 µM
[53]
  GI50: > 100 µM
  TGI: > 100 µM
[54]
  GI50: > 100 µM
  TGI: > 100 µM

## O=C1Cc2cc3ccccc3nc2-c2ccccc2N1
[1]
  TGI: > 100 µM
[2]
  TGI: > 100 µM
[3]
  TGI: > 100 µM
[4]
  TGI: > 100 µM
[5]
  TGI: > 100 µM
[55]
  TGI: > 100 µM
[6]
  TGI: > 100 µM
[7]
  TGI: > 100 µM
[8]
  TGI: > 100 µM
[9]
  TGI: > 100 µM
[10]
  TGI: > 100 µM
[11]
  TGI: > 100 µM
[12]
  TGI: > 100 µM
[13]
  TGI: > 100 µM
[14]
  TGI: > 100 µM
[15]
  TGI: > 100 µM
[16]
  TGI: > 100 µM
[17]
  TGI: > 100 µM
[18]
  TGI: > 100 µM
[19]
  TGI: > 100 µM
[20]
  TGI: 65.7 µM
[21]
  TGI: 90.4 µM
[22]
  TGI: > 100 µM
[56]
  TGI: > 100 µM
[23]
  TGI: > 100 µM
[24]
  TGI: > 100 µM
[25]
  TGI: > 100 µM
[26]
  TGI: > 100 µM
[27]
  TGI: > 100 µM
[28]
  TGI: 62.2 µM
[29]
  TGI: > 100 µM
[30]
  TGI: > 100 µM
[31]
  TGI: > 100 µM
[32]
  TGI: > 100 µM
[33]
  TGI: > 100 µM
[34]
  TGI: > 100 µM
[57]
  TGI: > 100 µM
[35]
  TGI: > 100 µM
[36]
  TGI: > 100 µM
[37]
  TGI: > 100 µM
[38]
  TGI: > 100 µM
[39]
  TGI: > 100 µM
[40]
  TGI: > 100 µM
[41]
  TGI: > 100 µM
[43]
  TGI: > 100 µM
[44]
  TGI: > 100 µM
[45]
  TGI: > 100 µM
[46]
  TGI: > 100 µM
[47]
  TGI: > 100 µM
[48]
  TGI: > 100 µM
[49]
  TGI: > 100 µM
[50]
  TGI: > 100 µM
[51]
  TGI: > 100 µM
[52]
  TGI: > 100 µM
[53]
  TGI: > 100 µM
[54]
  TGI: > 100 µM
